Reference: ChEMBL document CHEMBL3758147, “1,9-seco-Bicyclic Polyprenylated Acylphloroglucinols from Hypericum uralum” (J Nat Prod, 2015)

What follows are molecules tested against Acetylcholinesterase (Homo sapiens, UniProt P22303) (assay: Inhibition of human erythrocyte AChE using acetylthiocholine as substrate assessed as substrate hydrolysis preincubated for 20 mins followed by substrate addition measured after 30 mins by Ellman's assay). Details: not given; call rule not given here.
Chain of Acetylcholinesterase (P22303 whole entry): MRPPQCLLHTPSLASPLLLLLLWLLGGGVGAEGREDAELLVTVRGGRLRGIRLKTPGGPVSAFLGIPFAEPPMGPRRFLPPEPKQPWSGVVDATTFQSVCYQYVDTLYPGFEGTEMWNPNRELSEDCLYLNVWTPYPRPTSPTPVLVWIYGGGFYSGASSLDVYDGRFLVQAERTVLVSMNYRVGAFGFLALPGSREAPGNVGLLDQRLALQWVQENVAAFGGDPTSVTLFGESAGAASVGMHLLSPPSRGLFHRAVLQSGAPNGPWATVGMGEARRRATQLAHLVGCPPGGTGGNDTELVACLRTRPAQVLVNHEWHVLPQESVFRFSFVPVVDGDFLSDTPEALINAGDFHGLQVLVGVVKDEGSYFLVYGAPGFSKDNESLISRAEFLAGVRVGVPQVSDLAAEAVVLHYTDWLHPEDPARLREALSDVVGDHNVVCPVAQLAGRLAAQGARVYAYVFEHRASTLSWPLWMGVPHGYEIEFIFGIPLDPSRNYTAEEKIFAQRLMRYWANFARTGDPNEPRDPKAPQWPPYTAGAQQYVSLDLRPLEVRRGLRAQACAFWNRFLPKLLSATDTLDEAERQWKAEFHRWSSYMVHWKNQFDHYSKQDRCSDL

`CC(C)=CCC/C(C)=C/C[C@]12C[C@@H](CC=C(C)C)C(C)(C)[C@H](C(=O)C(C)C)C(=O)[C@](CC=C(C)C)(OC1=O)C2=O` was tested. Which IC50 did it give?
The IC50 was “Not Active”.

With `CC(C)=CC[C@H]1C[C@@]23C[C@H]4C(C)(C)c5ccccc5C(=O)[C@]45C(=O)C(CC=C(C)C)(C[C@@]1(C/C=C/C(C)(C)O)C25O)C3=O` as the molecule, how does the IC50 read?
Its IC50 is “Not Active”.

For `CC(C)=CC[C@H]1C[C@@]2(CC=C(C)C)C(=O)O[C@@](CC=C(C)C)(C(=O)[C@@H](C(=O)C(C)C)[C@]1(C)C/C=C/C(C)(C)OO)C2=O`, which IC50 is on record?
The IC50 was “Not Active”.

How did the IC50 turn out when `CC(C)=CCC[C@]1(C)[C@@H](CC=C(C)C)C[C@@]2(CC=C(C)C)C(=O)O[C@@](CC=C(C)C)(C(=O)[C@H]1C(=O)C(C)C)C2=O` was run?
The IC50 was “Not Active”.

Which IC50 does the source give for `CC(C)=CCC[C@]1(C)[C@@H](CC=C(C)C)C[C@H](CC=C(C)C)C(=O)[C@](O)(CC=C(C)C)C(=O)[C@H]1C(=O)C(C)C` here?
The IC50 was “Not Active”.

With `CCC(C)C(=O)[C@@H]1C(=O)[C@]2(CC=C(C)C)OC(=O)[C@](C/C=C(\C)CCC=C(C)C)(C[C@@H](CC=C(C)C)C1(C)C)C2=O` (some centres not stated) as the molecule, how does the IC50 read?
Its IC50 is “Not Active”.

How did the IC50 turn out when `CC(C)=CC[C@H]1C[C@@]2(CC=C(C)C)C(=O)O[C@](CC=C(C)C)(C2=O)C(=O)[C@]23C(=O)c4ccccc4C(C)(C)[C@H]2CC[C@]13C` was run?
The IC50 was “Not Active”.

`CC(C)=CCC1=C2OC(C)(C)[C@H](O)[C@H]3/C=C(/C)[C@@H](CC=C(C)C)C[C@](CC=C(C)C)(C1=O)C(=O)[C@]23C(=O)c1ccccc1` was tested. Which IC50 did it give?
Its IC50 is “Not Active”.

How did the IC50 turn out when `CCC(C)C(=O)[C@@H]1C(=O)[C@]2(CC=C(C)C)OC(=O)[C@](CC=C(C)C)(C[C@H](CC=C(C)C)[C@@]1(C)C/C=C/C(C)(C)OO)C2=O` (some centres not stated) was run?
Its IC50 is “Not Active”.

Which IC50 does the source give for `CC(C)=CC[C@H]1C[C@@]2(CC=C(C)C)C(=O)C3(CC=C(C)C)CC14C[C@@H](C=C(C)C)C(C(=O)c1ccccc1)(C3=O)C42O` here?
The IC50 was “Not Active”.

Same assay, conditions: read-out: IC50

`CC(C)=CC[C@H]1C[C@@]2(CC=C(C)C)C(=O)O[C@@](CC=C(C)C)(C(=O)[C@@H](C(=O)C(C)C)[C@]1(C)C/C=C/C(C)(C)O)C2=O` was tested. Which IC50 did it give?
Its IC50 is 9.6 µM.

With `CCC(C)C(=O)[C@@H]1C(=O)[C@]2(CC=C(C)C)OC(=O)[C@](CC=C(C)C)(C[C@H](CC=C(C)C)[C@@]1(C)C/C=C/C(C)(C)O)C2=O` (some centres not stated) as the molecule, how does the IC50 read?
Its IC50 is 7.1 µM.
